In BindingDB's records for doi:10.1021/acs.jmedchem.5b01939 (University of Messina, 2016):

Experiments:
[1] = biological target: T1, G protein-coupled receptor kinase 5 (Bos taurus, UniProt P43249); assay: ChEBML_1612831
Description: (§1) Inhibition of bovine GRK5 assessed as decrease in phosphorylation of tubulin after 5 mins by SDS-PAGE analysis

[2] = biological target: T2, Rhodopsin kinase GRK1 (Bos taurus, UniProt P28327); assay: (§2) Inhibition of bovine GRK1 (1 to 535 residues) assessed as decrease in phosphorylation of tubulin after 5 mins by SDS-PAGE analysis
T2 sequence (P28327 whole entry): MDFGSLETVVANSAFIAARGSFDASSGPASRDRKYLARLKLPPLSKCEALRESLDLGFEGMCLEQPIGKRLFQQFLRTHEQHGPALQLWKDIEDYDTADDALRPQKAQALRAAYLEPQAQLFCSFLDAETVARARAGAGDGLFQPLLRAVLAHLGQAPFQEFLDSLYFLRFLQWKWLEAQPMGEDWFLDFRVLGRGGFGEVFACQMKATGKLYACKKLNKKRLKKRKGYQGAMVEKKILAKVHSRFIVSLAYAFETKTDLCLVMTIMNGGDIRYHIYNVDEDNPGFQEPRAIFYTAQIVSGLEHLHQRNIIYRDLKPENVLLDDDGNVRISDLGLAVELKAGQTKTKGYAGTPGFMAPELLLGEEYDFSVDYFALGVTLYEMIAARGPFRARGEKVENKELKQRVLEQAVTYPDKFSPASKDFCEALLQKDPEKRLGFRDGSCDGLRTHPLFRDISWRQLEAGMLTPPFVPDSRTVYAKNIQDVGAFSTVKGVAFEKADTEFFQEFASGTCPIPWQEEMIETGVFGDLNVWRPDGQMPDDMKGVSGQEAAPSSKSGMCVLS

[3] = biological target: T1, G protein-coupled receptor kinase 5; assay: as §1
[4] = biological target: T2, Rhodopsin kinase GRK1; assay: ChEBML_1612830
Description: as §2

[5] = biological target: T2, Rhodopsin kinase GRK1; assay: Inhibition of C-terminal hexahistidine tagged bovine GRK1 (535 residues) assessed as decrease in phosphorylation of tubulin preincubated for 30 mins followed by ATP addition
[6] = biological target: T1, G protein-coupled receptor kinase 5; assay: Inhibition of C-terminal hexahistidine tagged bovine GRK5 (561 residues) assessed as decrease in phosphorylation of light-activated bovine rod outer segments preincubated for 30 mins followed by ATP addition
[7] = biological target: T1, G protein-coupled receptor kinase 5; assay: Inhibition of C-terminal hexahistidine tagged bovine GRK5 (561 residues) assessed as decrease in phosphorylation of tubulin preincubated for 30 mins followed by ATP addition
[8] = biological target: T2, Rhodopsin kinase GRK1; assay: Inhibition of C-terminal hexahistidine tagged bovine GRK1 (535 residues) assessed as decrease in phosphorylation of light-activated bovine rod outer segments preincubated for 30 mins followed by ATP addition

T1 sequence (P43249 whole entry): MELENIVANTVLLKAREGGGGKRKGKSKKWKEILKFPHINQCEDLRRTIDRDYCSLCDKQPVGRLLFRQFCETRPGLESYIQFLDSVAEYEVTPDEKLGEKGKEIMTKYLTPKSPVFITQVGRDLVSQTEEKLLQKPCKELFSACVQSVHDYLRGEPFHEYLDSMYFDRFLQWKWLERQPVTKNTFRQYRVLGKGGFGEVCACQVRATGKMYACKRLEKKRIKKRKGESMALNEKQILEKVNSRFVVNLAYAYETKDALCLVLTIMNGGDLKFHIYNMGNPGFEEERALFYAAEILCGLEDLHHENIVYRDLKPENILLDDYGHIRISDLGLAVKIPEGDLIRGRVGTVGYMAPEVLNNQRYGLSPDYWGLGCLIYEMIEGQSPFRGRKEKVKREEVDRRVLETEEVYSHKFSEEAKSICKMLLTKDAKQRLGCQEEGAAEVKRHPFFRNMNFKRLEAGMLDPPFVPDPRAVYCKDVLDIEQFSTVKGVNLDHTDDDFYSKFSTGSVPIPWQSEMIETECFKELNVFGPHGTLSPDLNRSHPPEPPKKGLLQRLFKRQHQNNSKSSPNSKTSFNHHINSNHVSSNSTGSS

## CC1=C(C(=O)Nc2ccc3[nH]ncc3c2)C(c2ccc(Cl)c(Cl)c2)CC(=O)N1 (centres undefined) [4-(3,4-Dichlorophenyl)-N-1H-indazol-5-yl-2-methyl-6-oxo-1,4,5,6-tetrahydropyridine-3-carboxamide]
[1]
  IC50: 79.4 µM

## CC1=C(C(=O)Nc2ccc3[nH]ncc3c2)C(c2ccc3ccccc3c2)CC(=O)N1 (centres undefined) [N-(1H-indazol-5-yl)-2-methyl-4-(naphthalen-2-yl)-6-oxo-1,4,5,6-tetrahydropyridine-3-carboxamide]
[2]
  IC50: 794 µM
[3]
  IC50: 63.1 µM

## CC1=C(C(=O)Nc2cc(Cl)c3[nH]ncc3c2)C(c2ccc(C(F)(F)F)cc2)CC(=O)N1 (centres undefined) [N-(7-chloro-1H-indazol-5-yl)-2-methyl-6-oxo-4-[4-(trifluoromethyl)phenyl]-1,4,5,6-tetrahydropyridine-3-carboxamide]
[3]
  IC50: 39.8 µM

## Fc1ccc([C@@H]2CCNC[C@H]2COc2ccc3c(c2)OCO3)cc1 [PAROXETINE]
[4]
  IC50: 398 µM
[5]
  IC50: 158 µM
[6]
  IC50: 251 µM
[7]
  IC50: 126 µM
[8]
  IC50: 316 µM
